Consider 19 molecules from US11332459B2 (TEIJIN PHARMA LIMITED, priority 2017, dated 2022).

In the test the target is T1, human TRPC6 (Homo sapiens, UniProt Q9Y210).
T1 construct: expressed in transfected cells
T1 sequence (Q9Y210 1-931): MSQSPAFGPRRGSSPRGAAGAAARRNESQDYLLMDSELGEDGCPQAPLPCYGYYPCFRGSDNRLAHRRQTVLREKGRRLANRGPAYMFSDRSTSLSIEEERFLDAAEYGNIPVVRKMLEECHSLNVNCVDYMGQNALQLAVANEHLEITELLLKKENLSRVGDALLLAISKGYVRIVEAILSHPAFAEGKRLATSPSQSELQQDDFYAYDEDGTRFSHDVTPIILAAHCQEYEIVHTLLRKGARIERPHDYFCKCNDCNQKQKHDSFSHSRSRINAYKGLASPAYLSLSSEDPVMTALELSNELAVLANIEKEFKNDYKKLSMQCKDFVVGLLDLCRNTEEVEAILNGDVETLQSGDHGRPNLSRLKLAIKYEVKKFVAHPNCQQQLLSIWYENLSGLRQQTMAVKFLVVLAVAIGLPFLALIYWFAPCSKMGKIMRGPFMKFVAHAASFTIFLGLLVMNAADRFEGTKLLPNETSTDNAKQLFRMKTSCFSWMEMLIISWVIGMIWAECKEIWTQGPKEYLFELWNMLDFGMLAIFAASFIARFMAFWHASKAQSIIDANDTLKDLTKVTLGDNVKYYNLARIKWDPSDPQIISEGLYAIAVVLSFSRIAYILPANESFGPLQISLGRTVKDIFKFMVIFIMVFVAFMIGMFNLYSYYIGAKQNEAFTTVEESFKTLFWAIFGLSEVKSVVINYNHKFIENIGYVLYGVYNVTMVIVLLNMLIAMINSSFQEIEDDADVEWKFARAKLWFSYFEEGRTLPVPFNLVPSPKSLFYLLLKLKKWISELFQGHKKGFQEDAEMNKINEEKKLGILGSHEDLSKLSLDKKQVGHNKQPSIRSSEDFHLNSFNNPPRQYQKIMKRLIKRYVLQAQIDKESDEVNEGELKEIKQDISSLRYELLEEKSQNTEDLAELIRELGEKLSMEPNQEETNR
Description: TRPC6 calcium flux assay (FLIPR, OAG-stimulated calcium influx). Format: cell-based. The settings on record: HEK293 cells stably transfected with human TRPC6, read-out: hTRPC6 Potency. The method, then: Biological Example 1 TRPC6 Calcium Flux Assay
Potency of TRPC6 (Transient receptor potential channel family C6) inhibitors were measured by their inhibition of Calcium influx trigged by […] (1-Oleoyl-2-acetyl-sn-glycerol, Millipore Sigma, O6754) stimulation on HEK293 cells stablely transfected with human TRPC6 using a FLIPR tetra system. Cells were grown in a humidified environment at 37° C. under 5% CO2 using the growth medium with the following selective reagents (Dulbecco's Modified Eagle's Medium (DMEM) high glucose, 10% Fetal Bovine Serum, 1×PSGlu (penicillin-streptomycin glutamine), 1×NEAA (Non-essential amino acid), 1× Na Pyruvate and 200 ug/ml Hygromycin). For general passage, cells were grown to 70-90% confluency; the media was removed, and the cells were gently washed 2 times with calcium and magnesium free PBS (phosphate-buffered saline). Trypsin (3 mL) was applied for 5 minutes at 37° C. The cells were dislodged by rapping flask against base of a hand and 7 mL of growth medium was added to deactivate trypsin and re-suspend cells. The usual splitting schedule was 1:5 every 2-3 days.
Cells were plated the day before the assay, plating cell density is 1.0-1.5×10^4/25 μl/well in poly-D-lysine (PDL) coated 384-well plates using either multichannel pipettes or multidrop. These cells were first incubated with fluorescence dye at room temperature for 90-120 minutes after they were grown on PDL-coated 384-well black plates overnight (Dye loading buffer 10 ml example: 9 mL assay buffer, 1 mL, 10×PBX signal enhancer, 10 μL Calcium indicator). The cells were incubated with a dose of compounds for 25 minutes before being stimulated with TRPC6 agonist OAG. The OAG solution was prepared by adding OAG into assay buffer (Ca ringer solution base: 10 mM HEPES (4-(2-hydroxyethyl)-1-piperazine-ethanesulfonic acid), 4 mM MgCl2, 120 mM NaCl, 5 mM KCl, pH=7.2 @25° C.)+0.1% BSA+2 mM CaCl2) to the concentration of 0.2 mM/2% DMSO, which achieves a final on cell concentration of 50 uM/0.5% DMSO. 12.5 uL OAG mixture was added and the activation of the TRPC6 channel was measured by the change of intracellular Calcium levels on FLIPR terra system.
Data was acquired by measuring the fluorescent peak signal subtracted from the background during the 180 second imaging frame. Each data point is further normalized to 100% of OAG triggered signal vs. buffer. Table 16 provides the IC50 for each compound, which data is obtained by plotting peak signal over the compound dose.
With “4-((2-((3R,4R)-3-amino-4-hydroxypiperidin-1-yl)-1H-benzo[d]imidazol-1-yl)methyl)benzonitrile compound with 4-((2-((3S,4S)-3-amino-4-hydroxypiperidin-1-yl)-1H-benzo[d]imidazol-1-yl)methyl)benzonitrile (1:1) dihydrochloride [Example 155]”, the IC50 is 16.2 nM.

`CCN(CC(C)C#N)C(=O)Cn1c(N2CC[C@@H](F)[C@H](N)C2)nc2cc(F)c(F)cc21` (mixture of isomers) [Example 237, 2-(2-((3R,4R)-3-amino-4-fluoropiperidin-1-yl)-5,6-difluoro-1H-benzo[d]imidazol-1-yl)-N-(2-cyanopropyl)-N-ethylacetamide]: the IC50 is 223 nM.

With `CN1CCC(n2c(N3CC[C@@H](F)[C@H](N)C3)nc3cc(F)c(F)cc32)C1=O` (mixture of isomers) [Example 238, 3-(2-((3R,4R)-3-amino-4-fluoropiperidin-1-yl)-5,6-difluoro-1H-benzo[d]imidazol-1-yl)-1-methylpyrrolidin-2-one], the IC50 came out at 185 nM.

In the case of `N[C@@H]1CN(c2nc3cc(F)c(F)cc3n2C2CCCN(c3ccccc3)C2=O)CC[C@H]1F` (mixture of isomers) [Example 239, 3-(2-((3R,4R)-3-amino-4-fluoropiperidin-1-yl)-5,6-difluoro-1H-benzo[d]imidazol-1-yl)-1-phenylpiperidin-2-one], the IC50 was 562 nM.

For `N[C@@H]1CN(c2nc3cc(F)c(F)cc3n2C2CCN(c3ccc(Cl)cc3)C2=O)CC[C@H]1F` (mixture of isomers) [Example 240, 3-(2-((3R,4R)-3-amino-4-fluoropiperidin-1-yl)-5,6-difluoro-1H-benzo[d]imidazol-1-yl)-1-(4-chlorophenyl)pyrrolidin-2-one], the IC50 turned out to be 10.7 nM.

Take `CC(c1cccc(C#N)c1)n1c(N2CC[C@@H](F)[C@H](N)C2)nc2cc(F)c(F)cc21` (mixture of isomers) [Example 302, 3-(1-(2-((3R,4R)-3-amino-4-fluoropiperidin-1-yl)-5,6-difluoro-1H-benzo[d]imidazol-1-yl)ethyl)benzonitrile]: the IC50 is 101 nM.

As for `CC(c1ccc(C#N)cc1)n1c(N2CCC[C@H](N)C2)nc2ccccc21` (mixture of isomers) [Example 399, 4-(1-(2-((S)-3-aminopiperidin-1-yl)-1H-benzo[d]imidazol-1-yl)ethyl)benzonitrile], the IC50 turned out to be 20.5 nM.

With `N[C@@H]1CN(c2nc3cc(F)c(F)cc3n2CC(=O)N2CCCC(C(F)(F)F)C2)CC[C@H]1F` (mixture of isomers) [Example 504, 2-(2-((3R,4R)-3-amino-4-fluoropiperidin-1-yl)-5,6-difluoro-1H-benzo[d]imidazol-1-yl)-1-(3-(trifluoromethyl)piperidin-1-yl)ethan-1-one], the IC50 is 39.3 nM.

In the case of `CC1CN(C(=O)Cn2c(N3CC[C@@H](F)[C@H](N)C3)nc3cc(F)c(F)cc32)CCO1` (mixture of isomers) [Example 507], the IC50 is 102 nM.

For `N[C@@H]1CN(c2nc3cc(F)c(F)cc3n2CC(=O)N(c2ccccc2)C2C=CS(=O)(=O)C2)CC[C@H]1F` (mixture of isomers) [Example 515, 2-(2-((3R,4R)-3-amino-4-fluoropiperidin-1-yl)-5,6-difluoro-1H-benzo[d]imidazol-1-yl)-N-(1,1-dioxido-2,3-dihydrothiophen-3-yl)-N-phenylacetamide], the IC50 came out at 186 nM.

As to `N[C@@H]1CN(c2nc3cc(F)c(F)cc3n2CC(=O)N(Cc2cccs2)C2CCS(=O)(=O)C2)CC[C@H]1F` (mixture of isomers) [Example 522, 2-(2-((3R,4R)-3-amino-4-fluoropiperidin-1-yl)-5,6-difluoro-1H-benzo[d]imidazol-1-yl)-N-(1,1-dioxidotetrahydrothiophen-3-yl)-N-(thiophen-2-ylmethyl)acetamide], the IC50 was determined as 762 nM.

As to `N[C@@H]1CN(c2nc3cc(F)c(F)cc3n2CC(=O)N2CCC3CCCCC3C2)CC[C@H]1F` (mixture of isomers) [Example 523, 2-(2-((3R,4R)-3-amino-4-fluoropiperidin-1-yl)-5,6-difluoro-1H-benzo[d]imidazol-1-yl)-1-(octahydroisoquinolin-2(1H)-yl)ethan-1-one], the IC50 amounted to 988 nM.

Consider `CN(C(=O)Cn1c(N2CC[C@@H](F)[C@H](N)C2)nc2cc(F)c(F)cc21)C1CCS(=O)(=O)C1` (mixture of isomers) [Example 525, 2-(2-((3R,4R)-3-amino-4-fluoropiperidin-1-yl)-5,6-difluoro-1H-benzo[d]imidazol-1-yl)-N-(1,1-dioxidotetrahydrothiophen-3-yl)-N-methylacetamide], for which the IC50 amounted to 1780 nM.

Regarding `CCN(C(=O)Cn1c(N2CC[C@@H](F)[C@H](N)C2)nc2cc(F)c(F)cc21)C1CCS(=O)(=O)C1` (mixture of isomers) [Example 527, 2-(2-((3R,4R)-3-amino-4-fluoropiperidin-1-yl)-5,6-difluoro-1H-benzo[d]imidazol-1-yl)-N-(1,1-dioxidotetrahydrothiophen-3-yl)-N-ethylacetamide], the IC50 was determined as 3010 nM.

In the case of `NC(=O)C1CCCN(C(=O)Cn2c(N3CC[C@@H](F)[C@H](N)C3)nc3cc(F)c(F)cc32)C1` (mixture of isomers) [Example 530, 1-(2-(2-((3R,4R)-3-amino-4-fluoropiperidin-1-yl)-5,6-difluoro-1H-benzo[d]imidazol-1-yl)acetyl)piperidine-3-carboxamide], the IC50 is greater than 3750 nM.

Regarding `N[C@@H]1CN(c2nc3cc(F)c(F)cc3n2CC(=O)N2CCC3CC32)CC[C@H]1F` (mixture of isomers) [Example 609, 2-(2-((3R,4R)-3-amino-4-fluoropiperidin-1-yl)-5,6-difluoro-1H-benzo[d]imidazol-1-yl)-1-(2-azabicyclo[3.1.0]hexan-2-yl)ethanone], the IC50 turned out to be 20.3 nM.

`CC(CC#N)N(C)C(=O)Cn1c(N2CC[C@@H](F)[C@H](N)C2)nc2cc(F)c(F)cc21` (mixture of isomers) [Example 612, 2-(2-((3R,4R)-3-amino-4-fluoropiperidin-1-yl)-5,6-difluoro-1H-benzo[d]imidazol-1-yl)-N-(1-cyanopropan-2-yl)-N-methylacetamide]: the IC50 is 22.4 nM.

For `CC(N(C)C(=O)Cn1c(N2CC[C@@H](F)[C@H](N)C2)nc2cc(F)c(F)cc21)C(F)(F)F` (mixture of isomers) [Example 614, 2-(2-((3R,4R)-3-amino-4-fluoropiperidin-1-yl)-5,6-difluoro-1H-benzo[d]imidazol-1-yl)-N-methyl-N-(1,1,1-trifluoropropan-2-yl)acetamide], the IC50 was 24.8 nM.

With `N[C@@H]1CN(c2nc3cc(F)c(F)cc3n2CC(=O)N2CCOC3CCOCC32)CC[C@H]1F` (mixture of isomers) [Example 620, 2-(2-((3R,4R)-3-amino-4-fluoropiperidin-1-yl)-5,6-difluoro-1H-benzo[d]imidazol-1-yl)-1-(hexahydropyrano[4,3-b][1,4]oxazin-4(7H)-yl)ethanone], the IC50 worked out at 60.4 nM.
